From patent US7504399B2, “Piperazine enamines as antiviral agents” (priority 2006, dated 2009)

Test system: HIV-1 single-round infectious reporter virus
Assay: Single-round infectious HIV-1 luciferase reporter virus infection assay in HeLa CD4 cells
Format: cell-based
Details: Human immunodeficiency virus 1, HeLa, 72 h, read-out: EC50 Group from Table 1
Protocol: • Virus production-Human embryonic Kidney cell line, 293T, was propagated in Dulbecco's Modified Eagle Medium (Invitrogen, Carlsbad, Calif.) containing 10% fetal Bovine serum (FBS, Sigma, St. Louis, Mo.). • Virus infection—Human epithelial cell line, HeLa, expressing the HIV-1 receptor CD4 was propagated in Dulbecco's Modified Eagle Medium (Invitrogen, Carlsbad, Calif.) containing 10% fetal Bovine serum (FBS, Sigma, St. Louis, Mo.) and supplemented with 0.2 mg/mL Geneticin (Invitrogen, Carlsbad, Calif.). Virus-Single-round infectious reporter virus was produced by co-transfecting human embryonic Kidney 293 cells with an HIV-1 envelope DNA expression vector and a proviral cDNA containing an envelope deletion mutation and the luciferase reporter gene inserted in place of HIV-1 nef sequences (Chen et al., Ref. 41). Transfections were performed using lipofectAMINE PLUS reagent as described by the manufacturer (Invitrogen, Carlsbad, Calif.). Experiment • 1. HeLa CD4 cells were plated in 96 well plates at a cell density of 1×10^4 cells per well in 100 μl Dulbecco's Modified Eagle Medium containing 10% fetal Bovine serum and incubated overnight. • 2. Compound was added in a 2 μl dimethylsulfoxide solution, so that the final assay concentration would be ≦10 μM. • 3. 100 μl of single-round infectious reporter virus in Dulbecco's Modified Eagle Medium was then added to the plated cells and compound at an approximate multiplicity of infection (MOI) of 0.01, resulting in a final volume of 200 μl per well. • 4. Virally-infected cells were incubated at 37 degrees Celsius, in a CO2 incubator, and harvested 72 h after infection. • 5. Viral infection was monitored by measuring luciferase expression from viral DNA in the infected cells using a luciferase reporter gene assay kit, as described by the manufacturer (Roche Molecular Biochemicals, Indianapolis, Ind.). Infected cell supernatants were removed and 50 μl of lysis buffer was added per well. After 15 minutes, 50 μl of freshly-reconstituted luciferase assay reagent was added per well. Luciferase activity was then quantified by measuring luminescence using a Wallac microbeta scintillation counter. • 6. The percent inhibition for each compound was calculated by quantifying the level of luciferase expression in cells infected in the presence of each compound as a percentage of that observed for cells infected in the absence of compound and subtracting such a determined value from 100. • 7. An EC50 provides a method for comparing the antiviral potency of the compounds of this disclosure. The effective concentration for fifty percent inhibition (EC50) was calculated with the Microsoft Excel Xlfit curve fitting software. For each compound, curves were generated from percent inhibition calculated at 10 different concentrations by using a four paramenter logistic model (model 205). Table 1 is the key for the data in Table 2. Results

Question: Which EC50 does the source give for `N#C/C=C(\c1ccccc1)N1CCN(C(=O)C(=O)c2c[nH]c3ccccc23)CC1` [EN-01] here?
Answer: < 1 µM

Question: For `N#CC(C#N)=C(c1ccccc1)N1CCN(C(=O)C(=O)c2c[nH]c3ccccc23)CC1` [EN-02, 2-((4-(2-(1H-indol-3-yl)-2-oxoacetyl)piperazin-1-yl)(phenyl)methylene)malononitrile], which EC50 is on record?
Answer: < 1 µM

Question: Which EC50 does the source give for `N#C/C=C(\c1ccccc1)N1CCN(C(=O)C(=O)c2c[nH]c3c(Br)ccc(F)c23)CC1` [EN-03] here?
Answer: < 1 µM

Question: With `COc1cnc(-n2cnc(C)n2)c2[nH]cc(C(=O)C(=O)N3CCN(/C(=C/C#N)c4ccccc4)CC3)c12` [EN-05] as the compound, how does the EC50 read?
Answer: < 1 µM

Question: With `COc1cnc(-n2ccnn2)c2[nH]cc(C(=O)C(=O)N3CCN(/C(=C/C#N)c4ccccc4)CC3)c12` [EN-06] as the compound, how does the EC50 read?
Answer: < 1 µM

Question: With `COc1cnc(-n2ccnn2)c2[nH]cc(C(=O)C(=O)N3CCN(C(=C(C#N)C#N)c4ccccc4)CC3)c12` [EN-07] as the compound, how does the EC50 read?
Answer: < 1 µM

Question: `N#CC(C#N)=C(c1ccccc1)N1CCN(C(=O)C(=O)c2c[nH]c3c(-n4ccnn4)ncc(F)c23)CC1` [EN-08, 2-((4-(2-(4-fluoro-7-(1H-1,2,3-triazol-1-yl)-1H-pyrrolo[2,3-c]pyridin-3-yl)-2-oxoacetyl)piperazin-1-yl)(phenyl)methylene)malononitrile] was tested. Which EC50 did it give?
Answer: < 1 µM

Question: With `O=C(O)/C=C(\c1ccccc1)N1CCN(C(=O)C(=O)c2c[nH]c3cccc(F)c23)CC1` [EN-09] as the compound, how does the EC50 read?
Answer: < 1 µM

Question: `COc1cnc(Cl)c2[nH]cc(C(=O)C(=O)N3CCN(C(=C(C#N)C#N)c4ccccc4)CC3)c12` [EN-10] was tested. Which EC50 did it give?
Answer: < 1 µM

Question: With `N#CC(C#N)=C(c1ccccc1)N1CCN(C(=O)C(=O)c2c[nH]c3cccc(F)c23)CC1` [EN-11, 2-((4-(2-(4-fluoro-1H-indol-3-yl)-2-oxoacetyl)piperazin-1-yl)(phenyl)methylene)malononitrile] as the compound, how does the EC50 read?
Answer: < 1 µM

Question: How did the EC50 turn out when `COc1cnc(Cl)c2[nH]cc(C(=O)C(=O)N3CCN(/C(=C/C#N)c4ccccc4)CC3)c12` [EN-13] was run?
Answer: < 1 µM
